This is an account of results in US12616750B2, “Combination therapy utilizing DNA alkylating agents and ATR inhibitors” (Merck Patent GmbH, priority 2018, dated 2026).

Holding throughout (format): cell-based
The test system of experiment [1] is HCC-1954 cells. Put plainly: Cytotoxicity (cell viability, CellTiter-Glo, 6 d). Particulars: Homo sapiens. As for the experimental part:
(§1) Dose-matrix combination assays were performed as described above, but performed in opague 384-well plates (2k viable cells/well). Compounds were added using Tecan D300e liquid. Protein solutions were supplemented with 0.3% Tween-20 (final) and diluted to 1 μM. All wells were normalized to the maximum amount of DMSO (maximum 0.4%) or Tween-20 added. […] Luminescence values were normalized to luminescence of non-treated cells and dose-response was fitted using Smart Fit. Synergy scores were calculated using LOEWE synergy model.
After 6 d of treatment, CellTiter-Glo luminescent assay was performed and the luminescence was read on Envision Reader. The results were analyzed using GeneData Screener as described before.
(Cellular ATP, detected with luciferase, serves as a proxy for viable cell number.)

For experiment [2], the system named is MDA-MB-468 cells. Put plainly: Cytotoxicity (cell viability, CellTiter-Glo, 6 d).
The subject of experiment [3] is MDA-MB-453 cells. Put plainly: Cytotoxicity (cell viability, CellTiter-Glo, 6 d). As to the method:
as §1

Experiment [4] deals with NCI-N87 cells. Put plainly: Cytotoxicity (cell viability, CellTiter-Glo, 6 d). The following applies: Homo sapiens; NCI-N87, agent alone, 384-well format (footnote a). As for the experimental part: as §1
Another experiment relates to JIMT-1 cells. Put plainly: Cytotoxicity (cell viability, CellTiter-Glo, 6 d). Particulars: JIMT-1, agent alone, 384-well format (footnote a). As for the experimental part: Evaluation was performed using GraphPad Prism version 6.05.
(§2) Dose-matrix combination assays were performed as described above, but performed in opague 384-well plates (2k viable cells/well). Compounds were added using Tecan D300e liquid. Protein solutions were supplemented with 0.3% Tween-20 (final) and diluted to 1 μM. All wells were normalized to the maximum amount of DMSO (maximum 0.4%) or Tween-20 added. Read out of luminescence was performed on Envision 2104 Multilabel Reader (Perkin Elmer) and data were evaluated using Genedata Screener® version 14.0.6-Standard (Genedata AG). Luminescence values were normalized to luminescence of non-treated cells and dose-response was fitted using Smart Fit. Synergy scores were calculated using LOEWE synergy model.

Experiment [5] has as its system HCC-1954 cells. Briefly: Dose-matrix combination assay (synergy score, Loewe model). The following applies: combination with AZD6738, HCC-1954, 6 d. As for the experimental part: as §1
(§3) The screening of synergistic drug combinations can be accomplished by performing a dose-matrix assay. Therefore, two drugs are serial diluted and mixed at every dose level, yielding a dose-matrix. The drug combination can be additive if the effects of the combination are identical to the added effects of the single agents. However, the effects of the combination might also be stronger than the activity of the single agents. This scenario is termed synergy, whereas weaker combination effects compared to the single agents are termed antagonism. A dose-matrix assay is depicted schematically in FIG. 2 which illustrates the outcomes of a dose-matrix assay: additivity, antagonism and synergy.
(§4) The screening was conducted by serial diluting the duocarmycin derivative DUBA (10) and the DDR inhibitors. […] DUBA was combined in a dose-matrix assay with hycanthone. The cell viability was measured after 6 d of treatment using the CellTiter-Glo assay kit. The signals of the cell viability assay were normalized to untreated cells and fitted. […] By subtracting the modeled data from the fitted data, an excess matrix was generated. The excess matrix can be considered as a visualization of the differences between model and actual data which also highlights spots of either high synergy or antagonism. The quantification of the combination effects, however, was performed by calculating synergy scores. […] Besides synergy score, the potency of the drugs in monotherapy was obtained from these experiments. […] The potency was obtained from this dose-response curve.
(§5) The scattering of S was determined in a sham control experiment to define a cutoff for classifying a combination as truly synergistic or antagonistic. Thus seven different compounds were combined with itself on four different cell lines and the three-σ confidence interval was calculated around the mean of the measurement. […] For the sake of convenience, the cutoff was set to a value of ±1.
(§6) Synergy scores (S) were obtained from the combination experiments that indicated additivity […] if model and actual response were equal. […] The magnitude of the score determined the extent of the combination effects.

For experiment [6], the system named is MDA-MB-453 cells. The experiment is described as above. The following applies: combination with AZD6738; MDA-MB-453. As for the experimental part: as §2, §3
Experiment [7] has as its system NCI-N87 cells. The description is as above. The following applies: combination with AZD6738; NCI-N87. As to the method:
as §2, §3

Experiment [8] concerns HCC-1954 cells treated with ATR, CHK1 or non-targeting siRNA. Briefly: Cytotoxicity of duocarmycins on siRNA knock-down cells. Particulars: 6 d. As to the method:
0.7*10^6 viable cells were seeded in a T25 flask, 5 mL of medium were added and the cells were incubated at 37° C. and 5% C02 overnight. The transfection was carried out as follows: 2.5 μL Lipofectamine RNAiMAX were diluted with 247.5 μL OptiMEM and a 0.3 μM siRNA (ATR, CHK1 or non-targeting siRNA) solution was prepared in OptiMEM to yield 250 μL final volume. The solutions were mixed and incubated for 20 min at room temperature, followed by the addition of 500 μL cell culture medium. The cell culture medium was removed from the cells, washed with PBS (3×) and the transfection mix was added to the cells. After 4 h incubation at 37° C. and 5% CO2, the transfection mix was removed in vacuo. The cells were washed with medium (3×), 5 mL medium were added and the cells were incubated for 60 h at 37° C. and 5% CO2. Then cells were detached, and seeded into 384-well plates. Then a cytotoxicity assay was performed as described before, but with one compound only
Therefore, HCC-1954 cells were seeded into T25 flasks and left to adhere overnight. Then the cells were washed with PBS, and subsequently ATR, CHK1 and non-targeting siRNA were added. The cells were incubated for 4 h, washed with medium and incubated for 3 d. Cells were detached and seeded into 384-well plates. They were treated with duocarmycins for 6 d. Cell viability was determined via CellTiter-Glo assay kit, and data were evaluated using GraphPad Prism. The knock-down efficiency was evaluated using quantitative PCR.

A further experiment concerns A431 cells. Briefly: Cytotoxicity (cell viability). Particulars: A431 (EGFR ++, MET +), Table 10. As to the method: (§7) Curve-shift assays were conducted as follows: The cell number and viability was determined using ViCell™-XR (Beckman Coulter) and seeded in opague 96-well plate (10k viable cells/well). After seeding, the plate was incubated (37° C., 5% C02) in a humid chamber overnight. Compounds were diluted in the appropriate medium, added to the cells and the plate was incubated (37° C., 5% CO2, 6 d) in a humid chamber. After 30 min equilibration at room temperature, CellTiter-Glo reagent (Promega) was added. After the plate was shaken (3 min, 550 rpm, rt) it was incubated (10 min, rt) and luminescence was read on a synergy 4 plate reader (BioTek). Evaluation was performed using GraphPad Prism version 6.05. Therefor luminescence values were normalized to luminescence values of non-treated cells and dose-response was fitted with 4-point logistic fit.
as §2

Experiment [9] relates to A549 cells. Put plainly: Cytotoxicity (cell viability). The following applies: A549 (EGFR +, MET +), Table 10. As for the experimental part: as §7, §2
The test system of the next experiment is MCF7 cells. Put plainly: Cytotoxicity (cell viability). Particulars: MCF7 (EGFR −, MET −), Table 10. As to the method:
as §7, §2

In experiment [10] the test system is MDA-MB-468 cells. Put plainly: Dose-matrix combination assay (synergy score, Loewe model). The following applies: combination with AZD6738; MDA-MB-468 (EGFR-positive), 6 d. As for the experimental part:
as §1, §3, §4, §5, §6

Experiment [11] concerns A549 cells. Described as above. Particulars: combination with AZD6738; A549 (EGFR-positive), 6 d. As to the method: as §2, §3

Where two headings read alike, the source gives them in different places.

As usually defined, the IC50 is the concentration that gives 50% inhibition. With `Cc1cccc2c(O)cc3c(c12)[C@H](CCl)CN3C(=O)c1cn2cc(NC(=O)c3ccc(O)cc3)ccc2n1` [compound 10], the IC50 in the experiment on HCC-1954 cells [1] (HCC1954, HCC-1954, agent alone, 384-well format (footnote a)) is 300 ± 70 pM; with HCC-1954 cells [1] (HCC1954, duocarmycin variant alone, HCC-1954, mean ± SD or mean (individual values)) it was 200 ± 100 pM; in the experiment on MDA-MB-468 cells [2] (Homo sapiens, MDA-MB-468), 60 ± 20 pM; with MDA-MB-453 cells [3] (Homo sapiens, MDA-MB-453), 300 ± 100 pM; in the experiment with NCI-N87 cells [4], 1200 ± 500 pM; with JIMT-1 cells (Homo sapiens), 3000 ± 2000 pM. The molecule also had an IC50 in [8] (Homo sapiens, HCC1954, 144 h, ATR knock-down HCC-1954 cells) of 250 pM. Also, the “Synergy score S” value is listed as 6.7 (6.3, 7.2) 6.9 ± 0.7 with HCC-1954 cells [5]; 6.9±0.7 in the experiment on HCC-1954 cells [5] (listed as DUBA); 6.9±0.7 in the experiment with HCC-1954 cells [5] (listed as DUBA (10)); 5.0±0.5 in the experiment on MDA-MB-453 cells [6]; 3.1+0.6 in the experiment with NCI-N87 cells [7].
Regarding `CN(C)CCOc1ccc2[nH]c(C(=O)N3C[C@@H](CCl)c4c3cc(O)c3ccccc43)cc2c1` [compound 38], the half-maximal inhibitory concentration (IC50) in the experiment with MDA-MB-468 cells [2] (MDA-MB-468 (EGFR +++, MET +), Table 10, read-out: IC50) is 20 ± 10 pM; in the experiment with MDA-MB-468 cells [2] (MDA-MB-468, agent alone, 384-well format (footnote a), read-out: IC50), 20 ± 10 pM; in the experiment on MDA-MB-453 cells [3] (MDA-MB-453, agent alone, 384-well format (footnote a), read-out: IC50) it was 140 pM; in the experiment on JIMT-1 cells, 140 pM; in the experiment on A431 cells it was 55 ± 5 pM; in the experiment with A549 cells [9] it was 100 ± 100 pM. Besides, the IC50 came out at 164 ± 4 pM with MCF7 cells, 14 pM in [8] (ATR knock-down HCC-1954 cells) and 133 pM in experiment [8] (CHK1 knock-down HCC-1954 cells). Further, the “Synergy score S” value was 5.6 ± 1.7 5.1 (4.8, 5.3) with HCC-1954 cells [5]; 5.6+1.7 with HCC-1954 cells [5] (listed as DDM); 5.6±1.7 in the experiment with HCC-1954 cells [5] (listed as DDM (38)); 6.0±1.0 in the experiment on MDA-MB-468 cells [10]; 2.0±1.1 in the experiment on A549 cells [11].
